In patent US20040141995A1, “MHC class I-restricted and MHC class II-restricted EBNA1 peptides” (priority 2002, published 2004):
Read-outs that look alike come from different tables or passages of the source.

Experiments:
Type in all cases: cell-based, human
[1] = system: 1359mel-specific CD8+ T cell recognition of 1359mel cells
Protocol: (§1) Target cells were incubated with various protease inhibitors for 2 h, washed and co-cultured with CD8^+ T cells overnight for IFN-γ release assays. Solvents used to solubilize inhibitors were also used as controls. […] Target cells were treated with different concentrations of protease inhibitors. After washes, the treated cells were co-cultured with M3-W1-B9 CD8^+ T cells overnight for IFN-γ release assays.
To test whether TPCK or AEBSF affected T cell recognition of other antigens, 1359mel were treated with the same concentrations of TPCK or AEBSF as described in FIG. 14A. […] AEBSF is an irreversible, specific inhibitor of serine proteases, while TPCK is an irreversible inhibitor of chymotrypsin and many other serine and cysteine proteases.

[2] = system: M3-W1-B9 CD8+ T cell recognition of HEK293/B8/EBNA1-GFP, LCL111 and 1359mel/EBNA1-GFP target cells; assay: Effect of inhibitors on M3W1-B9 CD8+ T cell recognition of EBNA1-expressing target cells (IFN-γ release); details: for dose dependence of inhibition of M3-W1-B9 CD8+ T cell recognition of HEK293/B8/EBNA1-GFP target cells: different concentrations of protease inhibitors (FIG. 14C); for effect on M3W1-B9 CD8+ T cell recognition of HEK293 transfected with HLA-B8 plus EBNA1-GFP: target cells treated with inhibitor, co-cultured with T cells overnight, IFN-γ release
Protocol: (§2) HEK 293 cells co-transfected with EBNA1-GFP were treated with various concentrations of ZAL inhibitor for 10 h. After washing, cells were incubated with T cells overnight for IFN-γ release assays. Various dilutions of DMSO were used as controls. T cell activity in the absence of inhibitor was used as 100% activity.
(§3) HLA-B8 expressing HEK293/EBNA1-GFP target cells were treated with an emetine inhibitor at three concentrations for 1h. After three washings, cells were co-cultured with M3-W1-B9 CD8^+ T cells overnight for IFN-γ release assays. […] HLA-B8 positive 1359 cells with the EBNA1-P518-526 peptide after the treatment of 1359mel cells were pulsed with 3 different concentration of emetine. FIG. 13B illustrates the determination of the sensitivity of recognition of TRP2-specific CD8 T cells to the treatment with emetine. 1363mel cells were treated with 3 different concentrations of emetine. After 3 washes, the cells were co-cultured with TRP2-specific CD8 ^+ T cells. The treated cells pulsed with a TRP2 peptide were used to examine the effect of emetine on recognition of MHC class I/TRP2 complexes on the cell surface; and
as §1
Target cells were incubated in the absence or presence of various concentrations of inhibitors for different period of time, depending on the type of inhibitors used. The cells were then washed and counted and co-cultured with T cells overnight for IFN-γ release assays. The solvents used to dissolve the inhibitors, such as DMSO, methanol and ethanol were also used as controls.
(§4) HEK293 cells were transfected with EBNA1-GFP and HLA-B8 cDNAs, and then treated them with different concentrations of ZAL and lactacystin, specific inhibitors of proteasomes. […] To exclude the potential nonspecific effect of ZAL on T cell recognition, the effects of ZAL inhibitor were tested on melanoma-reactive TIL102-CD4^+ T cells, which recognize a MHC class II-restricted epitope on the cell surface of 102mel tumor cells, and of P3-B7 CD4^+ T cells, which recognize HLA-DP3 expressing HEK293 cells transfected with Ii-EBNA1 as target cells. […] The effects of lactacystin, another specific proteasome inhibitor, were also tested on T cell recognition.
HLA-B8 expressing HEK293/EBNA1-GFP cells were treated with different concentrations of irreversible (emetine) and reversible (puromycin and cycloheximide) protein synthesis inhibitors for 1 h. After washing to remove inhibitors, the treated cells were co-cultured with antigen-specific CD8^+ T cells. […] Since blocking protein synthesis should rapidly decrease the peptide supply required for the export of MHC class I molecules from the ER to the cell surface as well as synthesis of MHC class I molecules, the treatment of cells with emetine would decrease the overall antigen presentation by MHC class I molecules.

[3] = system: TRP2-specific CD8+ T cell recognition of 1363mel cells; assay: Effect of emetine on recognition of 1363mel cells by TRP2-specific CD8+ T cells
Protocol: as §3
HLA-B8 positive 1359mel cells were pulsed with the EBNA1-P518-526 peptide after the cells were treated with different concentrations of emetine and washed. […] 1363mel cells (TRP2^+ and HLA-A2^+) were treated with different concentrations of emetine, and then tested for their ability to stimulate TRP2-specific CD8^+ T cells. […] However, there was only 30% inhibition of T cell recognition at 1 μM emetine treatment compared with over 90% inhibition of EBNA1-specific CD8^+ T cells at the same concentration of emetine (FIG. 13A). […] On the other hand, the processing and presentation of the TRP2 and CD4^+ T cell EBNA1 epitopes are less dependent on the production of short-lived DRiPs.

[4] = system: P3-B7 CD4+ T cell recognition of HEK293/DP3/Ii-EBNA1 target cells; assay: Effect of inhibitors on P3-B7 CD4+ T cell recognition of EBNA1 target cells; details: Homo sapiens, CD4+ T cell; 1 μM emetine; read-out: inhibition of EBNA1-specific P3-B7 CD4+ T cell recognition
Protocol: as §2, §4
HLA-B8 positive 1359mel cells were pulsed with the EBNA1-P518-526 peptide after the cells were treated with different concentrations of emetine and washed. […] 1363mel cells (TRP2^+ and HLA-A2^+) were treated with different concentrations of emetine, and then tested for their ability to stimulate TRP2-specific CD8^+ T cells. […]

Compound | inhibition of recognition of 1359mel cells by 1359mel-specific CD8+ T cells ([1]; same inhibitor concentrations as FIG. 14A) | dose dependence of inhibition of M3-W1-B9 CD8+ T cell recognition of HEK293/B8/EBNA1-GFP target cells [2] | effect on M3W1-B9 CD8+ T cell recognition of HEK293 transfected with HLA-B8 plus EBNA1-GFP ([2]; washed) | inhibition of recognition of 1359mel cells by 1359mel-specific CD8+ T cells [1] | effect on T cell recognition of TRP2 peptide-pulsed target cells after inhibitor treatment [3] | inhibition at 1 µM ([3]; Homo sapiens, T-cell, 1 μM emetine, read-out: inhibition of recognition of 1363mel target cells by TRP2-specific CD8+ T cells) | concentration dependence of inhibition of recognition of 1363mel target cells by TRP2-specific CD8+ T cells ([3]; different concentrations of emetine) | inhibition of M3W1-B9 CD8+ T cell recognition of HLA-B8 expressing HEK293/EBNA1-GFP target cells ([2]; 5 μM inhibitor for 1 h) | inhibition at 1 µM ([2]; Homo sapiens, T-cell, 1 h, 1 μM inhibitor for 1 h, read-out: inhibition of M3W1-B9 CD8+ T cell recognition of HLA-B8 expressing HEK293/EBNA1-GFP target cells) | effect on T cell recognition of 1359mel cells pulsed with EBNA1-P518-526 peptide after inhibitor treatment ([2]; different concentrations of emetine, washed, then peptide-pulsed) | inhibition at 1 µM [4]
NCCc1ccc(S(=O)(=O)F)cc1 [AEBSF] | No inhibition | in a dose-dependent manner | significantly blocked | – | – | – | – | – | – | – | –
Cc1ccc(S(=O)(=O)N[C@@H](Cc2ccccc2)C(=O)CCl)cc1 [TPCK] | – | in a dose-dependent manner | significantly blocked | No inhibition | – | – | – | – | – | – | –
CC[C@H]1CN2CCc3cc(OC)c(OC)cc3[C@@H]2C[C@@H]1C[C@H]1NCCc2cc(OC)c(OC)cc21 [emetine] | – | – | – | – | slightly inhibited | 30% | increased with the increasing concentrations | completely inhibited | 94% | slightly inhibited | 20%
